Measurements taken from patent US20100021940A1, “Method for Determining the Activity of a Protease in a Sample” (ASTRAZENECA AB, priority 2006, published 2010).

What was measured:
Assay in all cases: Activity of purified MMP on substrate (reporter release)
MMP19 = type: biochemical, human; conditions: 30 μM substrate; MMP Conc. 19 nM; AZL0095
Excerpt: (§1) In order to confirm the specificity of the substrates for various MMPs, standard enzymatic assays were adapted to monitor the release of reporter. The reporter was either analysed by a LC-MS method as described in Example 3a, or by a LC-UV method as described in Example 4.
Recombinant human MMP19 catalytic domain may be expressed and purified as described by Parkar A. A. et al, (2000), Protein Expression and Purification, 20:152. The purified enzyme can be used to monitor activity of substrates as follows: MMP19 (40 ng/ml […]) in assay buffer (0.1M “Tris-HCl” (trade mark) buffer, pH 7.3 containing 0.1M NaCl, 20 mM CaCl2, 0.020 mM ZnCl and 0.05% (w/v) “Brij 35” (trade mark) detergent) in the presence or absence of inhibitors. Activity is determined by measuring the release of reporter 4-nitroaniline by the using the method in Example 3a.

MMP2 = target: T1, MMP2 (Homo sapiens, UniProt P08253); type: biochemical; conditions: 30 μM substrate; MMP Conc. 0.71 nM; Chemicon #CC071
T1 sequence (P08253 110-660): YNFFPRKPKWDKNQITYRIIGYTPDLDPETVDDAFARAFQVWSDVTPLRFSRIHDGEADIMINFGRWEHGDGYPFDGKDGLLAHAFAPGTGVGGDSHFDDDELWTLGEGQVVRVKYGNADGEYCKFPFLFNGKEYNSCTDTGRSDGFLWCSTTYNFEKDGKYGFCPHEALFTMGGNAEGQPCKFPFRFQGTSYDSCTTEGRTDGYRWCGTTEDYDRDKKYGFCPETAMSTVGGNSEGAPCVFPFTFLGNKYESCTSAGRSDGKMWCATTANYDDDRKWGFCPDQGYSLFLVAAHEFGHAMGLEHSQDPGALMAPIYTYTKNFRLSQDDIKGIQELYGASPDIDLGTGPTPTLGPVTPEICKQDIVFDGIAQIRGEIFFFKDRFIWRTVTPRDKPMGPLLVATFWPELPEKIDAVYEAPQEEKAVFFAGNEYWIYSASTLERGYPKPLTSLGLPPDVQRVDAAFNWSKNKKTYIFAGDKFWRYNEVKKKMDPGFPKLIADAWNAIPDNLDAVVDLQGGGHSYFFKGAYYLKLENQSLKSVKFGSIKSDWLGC
Excerpt: as §1
(§2) A protocol for testing against other matrix metalloproteinases, including MMP9, using expressed and purified pro MMP is described, for instance, by C. Graham Knight et al., (1992) FEBS Lett., 296(3), 263-266.

MMP13 = MMP13 (Homo sapiens, UniProt P45452); type: biochemical; conditions: 30 μM substrate; MMP Conc. 1.2 nM; AZAP0.5 mg/ml
Excerpt: as §1, §2

MMP16 = MMP16 (Homo sapiens, UniProt P51512); type: biochemical; conditions: 30 μM substrate; MMP Conc. 4.3 nM; Calbiochem #475939
Sequence of MMP16 (P51512 120-607): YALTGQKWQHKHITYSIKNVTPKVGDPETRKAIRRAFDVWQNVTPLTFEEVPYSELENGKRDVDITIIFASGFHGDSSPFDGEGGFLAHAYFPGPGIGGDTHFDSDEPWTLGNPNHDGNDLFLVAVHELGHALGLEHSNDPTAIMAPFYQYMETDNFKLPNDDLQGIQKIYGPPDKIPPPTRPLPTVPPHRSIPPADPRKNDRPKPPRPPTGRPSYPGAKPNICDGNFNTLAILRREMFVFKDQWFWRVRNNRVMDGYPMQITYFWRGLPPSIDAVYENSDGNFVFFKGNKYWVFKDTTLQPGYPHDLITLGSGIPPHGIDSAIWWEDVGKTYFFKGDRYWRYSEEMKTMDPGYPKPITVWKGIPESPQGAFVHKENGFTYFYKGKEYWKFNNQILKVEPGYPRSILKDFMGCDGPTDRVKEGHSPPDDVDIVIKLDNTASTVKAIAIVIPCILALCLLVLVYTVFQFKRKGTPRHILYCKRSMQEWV
Excerpt: as §1, §2

MMP3 = MMP3 (Homo sapiens, UniProt P08254); type: biochemical
Sequence of MMP3 (P08254 100-477): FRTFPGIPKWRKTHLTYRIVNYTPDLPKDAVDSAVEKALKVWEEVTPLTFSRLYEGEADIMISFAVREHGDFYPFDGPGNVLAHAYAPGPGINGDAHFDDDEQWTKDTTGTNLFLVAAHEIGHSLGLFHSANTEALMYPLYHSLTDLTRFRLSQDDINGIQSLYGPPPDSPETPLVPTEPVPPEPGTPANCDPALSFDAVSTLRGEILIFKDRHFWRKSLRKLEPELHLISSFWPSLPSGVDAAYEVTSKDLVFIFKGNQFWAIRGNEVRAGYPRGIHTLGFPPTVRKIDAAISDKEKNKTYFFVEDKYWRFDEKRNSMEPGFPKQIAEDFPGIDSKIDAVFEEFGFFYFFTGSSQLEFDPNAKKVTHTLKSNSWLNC
Excerpt: as §1, with “4. A protocol for testing against other matrix metalloproteinases, including MMP9, using expressed and purified pro MMP is described, for instance, by C.” for “4.”

MMP1 = target: T2, MMP1 (Homo sapiens, UniProt P03956); type: biochemical
T2 sequence (P03956 100-469): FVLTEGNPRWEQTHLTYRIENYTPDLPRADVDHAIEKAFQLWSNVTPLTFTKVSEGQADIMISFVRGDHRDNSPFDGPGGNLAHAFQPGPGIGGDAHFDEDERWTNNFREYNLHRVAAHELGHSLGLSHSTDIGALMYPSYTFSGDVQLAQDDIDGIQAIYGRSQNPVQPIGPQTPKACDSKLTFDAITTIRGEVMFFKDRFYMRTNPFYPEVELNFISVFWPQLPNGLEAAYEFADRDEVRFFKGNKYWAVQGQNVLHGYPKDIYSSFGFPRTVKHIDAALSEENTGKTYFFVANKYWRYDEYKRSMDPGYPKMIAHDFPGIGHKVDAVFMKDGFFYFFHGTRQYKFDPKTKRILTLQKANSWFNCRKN
Excerpt: as §1, with “4. A protocol for testing against other matrix metalloproteinases, including MMP9, using expressed and purified pro MMP is described, for instance, by C.” for “4.”

MMP14 = type: biochemical, human; conditions: 30 μM substrate; MMP Conc. 4.8 nM; AZL0078
Excerpt: as §1
Recombinant human MMP14 catalytic domain may be expressed and purified as described by Parkar A. A. et al, (2000), Protein Expression and Purification, 20, 152. The purified enzyme can be used to monitor activity of substrates as follows: MMP14 (10 ng/ml final […]) in assay buffer (0.1M “Tris-HCl” (trade mark) buffer, pH 7.5 containing 0.1M NaCl, 20 mM CaCl2, 0.020 mM ZnCl and 0.05% (w/v) “Brij 35” (trade mark) detergent) in the presence or absence of inhibitors. Activity is determined by measuring the release of reporter 4-nitroaniline by the using the method in Example 3a.

MMP12 = target: T3, MMP12 (Homo sapiens, UniProt P39900); type: biochemical; conditions: 30 μM substrate; MMP Conc. 0.27 nM; ABL010827
T3 construct: Recombinant human MMP12 catalytic domain may be expressed and purified; made in house
T3 sequence (P39900 106-263 limits assumed): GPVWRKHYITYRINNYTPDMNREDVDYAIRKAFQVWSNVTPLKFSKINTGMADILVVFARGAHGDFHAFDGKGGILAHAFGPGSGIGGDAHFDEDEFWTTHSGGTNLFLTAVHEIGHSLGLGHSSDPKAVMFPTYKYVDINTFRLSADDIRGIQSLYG
Excerpt: as §1
Recombinant human MMP12 catalytic domain may be expressed and purified as described by Parkar A. A. et al, (2000), Protein Expression and Purification, 20, 152. The purified enzyme can be used to monitor activity of substrates as follows: MMP12 (50 ng/ml final […]) in assay buffer (0.1M “Tris-HCl” (trade mark) buffer, pH 7.3 containing 0.1M NaCl, 20 mM CaCl2, 0.020 mM ZnCl and 0.05% (w/v) “Brij 35” (trade mark) detergent) in the presence or absence of inhibitors. Activity is determined by measuring the release of reporter 4-nitroaniline by the using the method in Example 3a.

COC(=O)CCNC(=O)[C@H](CC(C)C)NC(=O)[C@@H](NC(=O)CNC(=O)[C@H](CC(C)C)NC(=O)[C@@H]1CCCN1C(C)=O)Nc1ccc([N+](=O)[O-])cc1 [Example 1.1, Methyl 1-acetyl-L-prolyl-L-leucylglycyl-α-R-(4-nitrophenylamino)-glycyl-L-leucyl-β-alaninate]
Activity (MMP19): 0.13 units/s
Activity (MMP2): 2.3 units/s
Activity (MMP13): 1.9 units/s
Activity (MMP16): 1.4 units/s
Activity (MMP3; 30 μM substrate, MMP Conc. 19 nM, AZL0095): 0.048 units/s
Activity of selected substrates with MMPs (MMP3; Table 1b, MMP3): 3.8 units/s (molRXH/molEnz * s)
Activity (MMP1; 30 μM substrate, MMP Conc. 9.3 nM, Calbiochem #444208): 0.16 units/s
Activity of selected substrates with MMPs (MMP1; Table 1b, MMP1): 26.1 units/s (molRXH/molEnz * s)
Activity (MMP14): 1.0 units/s
Activity (MMP12): 7.7 units/s
